Results: US10766884B2 (Pfizer Inc., priority 2018, dated 2020)
Where a name gives a salt, the structure may show the parent alone.

Legend:
CDK4/Cyclin D1 = CDK4/Cyclin D1 (Homo sapiens (Human), UniProt P11802); assay: CDK4/Cyclin D1 mobility shift assay; assay type: biochemical; conditions: activated CDK4/Cyclin D1, 3.5 mM ATP, Morrison fit; read-out: CDK4D1 Ki
CDK6/Cyclin D3 = CDK6/Cyclin D3 (Homo sapiens (Human), UniProt Q00534); assay: CDK6/Cyclin D3 mobility shift assay; assay type: biochemical; conditions: activated CDK6/Cyclin D3, 3.5 mM ATP, Morrison fit; read-out: CDK6_D3 Ki
Sequence of CDK6/Cyclin D3 (Q00534 whole entry): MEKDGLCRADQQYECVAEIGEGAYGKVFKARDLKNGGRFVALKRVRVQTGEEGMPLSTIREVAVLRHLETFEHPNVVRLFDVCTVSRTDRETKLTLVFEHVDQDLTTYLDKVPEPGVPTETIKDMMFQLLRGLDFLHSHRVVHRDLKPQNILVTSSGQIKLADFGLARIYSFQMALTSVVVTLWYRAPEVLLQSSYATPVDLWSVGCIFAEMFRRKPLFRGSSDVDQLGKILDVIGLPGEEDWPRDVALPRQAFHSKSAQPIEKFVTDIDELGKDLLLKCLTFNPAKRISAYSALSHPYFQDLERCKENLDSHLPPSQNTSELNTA
Sequence of CDK6/Cyclin D3 (P30281 whole entry partner): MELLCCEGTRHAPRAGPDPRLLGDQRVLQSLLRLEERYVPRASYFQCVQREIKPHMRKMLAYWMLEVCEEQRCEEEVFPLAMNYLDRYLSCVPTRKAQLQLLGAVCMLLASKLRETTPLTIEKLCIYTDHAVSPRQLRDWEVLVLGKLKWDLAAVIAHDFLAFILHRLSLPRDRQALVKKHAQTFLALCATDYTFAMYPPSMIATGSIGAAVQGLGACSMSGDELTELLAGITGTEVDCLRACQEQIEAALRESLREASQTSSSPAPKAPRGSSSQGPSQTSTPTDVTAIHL

CDK4 = CDK4 (Homo sapiens (Human), UniProt P11802); assay: Phospho-Serine 795 Rb ELISA assay in JEKO-1 cells; assay type: cell-based; conditions: overnight treatment, phospho-Rb S795, read-out: CDK4 pRB S795 ELISA JEKO-1 cells IC50
Sequence of CDK4 (P11802 2-303): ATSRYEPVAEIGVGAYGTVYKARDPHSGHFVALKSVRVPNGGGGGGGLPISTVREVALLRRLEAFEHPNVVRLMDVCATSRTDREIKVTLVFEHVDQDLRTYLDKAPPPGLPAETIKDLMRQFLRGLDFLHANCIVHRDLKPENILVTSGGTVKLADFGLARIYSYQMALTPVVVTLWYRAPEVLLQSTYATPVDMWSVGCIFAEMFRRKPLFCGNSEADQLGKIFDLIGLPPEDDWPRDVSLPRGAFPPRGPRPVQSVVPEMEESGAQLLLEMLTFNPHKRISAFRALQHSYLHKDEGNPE
Sequence of CDK4 (P24385 whole entry partner): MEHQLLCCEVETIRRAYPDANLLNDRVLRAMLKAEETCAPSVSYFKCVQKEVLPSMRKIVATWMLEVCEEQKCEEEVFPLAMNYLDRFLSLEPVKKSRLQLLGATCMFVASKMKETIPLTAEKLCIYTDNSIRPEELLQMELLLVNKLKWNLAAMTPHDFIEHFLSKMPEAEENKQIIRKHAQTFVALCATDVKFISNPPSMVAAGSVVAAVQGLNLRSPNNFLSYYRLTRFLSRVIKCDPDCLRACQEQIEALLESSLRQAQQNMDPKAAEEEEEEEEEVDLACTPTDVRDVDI

CDK6 = CDK6 (Homo sapiens (Human), UniProt Q00534); assay: Phospho-Serine 795 Rb ELISA assay in MV4-11 cells; assay type: cell-based; conditions: overnight treatment, phospho-Rb S795, read-out: CDK6 pRB S795 ELISA MV4-11 cells IC50
Sequence of CDK6 (Q00534 whole entry): as the sequence (Q00534 whole entry) above
Sequence of CDK6 (P30281 whole entry partner): as the sequence (P30281 whole entry partner) above

Sequence of CDK4/Cyclin D1 (P11802 whole entry): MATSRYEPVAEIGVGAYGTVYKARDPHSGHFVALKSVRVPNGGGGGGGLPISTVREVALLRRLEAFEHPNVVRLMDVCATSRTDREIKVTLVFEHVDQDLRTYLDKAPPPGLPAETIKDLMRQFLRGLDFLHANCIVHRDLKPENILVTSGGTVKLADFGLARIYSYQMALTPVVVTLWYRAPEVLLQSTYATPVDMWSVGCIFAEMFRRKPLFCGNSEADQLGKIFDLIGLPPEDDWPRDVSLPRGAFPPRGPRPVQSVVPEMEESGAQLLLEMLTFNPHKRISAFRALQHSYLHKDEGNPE
Sequence of CDK4/Cyclin D1 (P24385 whole entry partner): as the sequence (P24385 whole entry partner) above

Row | Ki (CDK4/Cyclin D1) [µM] | Ki (CDK6/Cyclin D3) [µM] | IC50 (CDK4) [µM] | IC50 (CDK6) [µM] | SMILES
1 | 0.0009 | 0.0186 | 0.205 | 0.23 | CC(C)n1c(CNC2COC2)nc2c(F)cc(-c3nc(N[C@@H]4CCN(S(C)(=O)=O)C[C@H]4O)ncc3Cl)cc21 [Example H09, (3R,4R)-4-({5-chloro-4-[4-fluoro-2-{[(oxetan-3-yl)amino]methyl}-1-(propan-2-yl)-1H-benzimidazol-6-yl]pyrimidin-2-yl}amino)-1-(methanesulfonyl)piperidin-3-ol]
2 | 0.0014 | 0.026 | 0.675 | 0.363 | CC(=O)N1CC[C@@H](Nc2ncc(F)c(-c3cc(F)c4nc(C)n(C(C)C)c4c3)n2)[C@H](O)C1 [Example F16, 1-[(3R,4R)-4-({5-fluoro-4-[4-fluoro-2-methyl-1-(propan-2-yl)-1H-benzimidazol-6-yl]pyrimidin-2-yl}amino)-3-hydroxypiperidin-1-yl]ethan-1-one]
3 | 0.0018 | 0.0233 | 0.246 | 0.644 | CC(C)n1cnc2c(F)cc(-c3nc(N[C@@H]4CCN(C(=O)C5(N)CC(F)(F)C5)C[C@H]4O)ncc3Cl)cc21 [Example F29, (1-amino-3,3-difluorocyclobutyl)[(3R,4R)-4-({5-chloro-4-[4-fluoro-1-(propan-2-yl)-1H-benzimidazol-6-yl]pyrimidin-2-yl}amino)-3-hydroxypiperidin-1-yl]methanone]
4 | 0.001 | 0.011 | 0.692 | 1.32 | CNCC(=O)N1CC[C@@H](Nc2ncc(F)c(-c3cc(F)c4nc(C)n(C(C)C)c4c3)n2)[C@H](O)C1 [Example F23, 1-[(3R,4R)-4-({5-fluoro-4-[4-fluoro-2-methyl-1-(propan-2-yl)-1H-benzimidazol-6-yl]pyrimidin-2-yl}amino)-3-hydroxypiperidin-1-yl]-2-(methylamino)ethan-1-one]
5 | 0.002 | 0.0243 | 0.155 | 0.787 | CC(C)n1cnc2c(Cl)cc(-c3nc(N[C@@H]4CCN(C(=O)[C@@H](C)O)C[C@H]4O)ncc3Cl)cc21 [Example F20, (2R)-1-[(3R,4R)-4-({5-chloro-4-[4-chloro-1-(propan-2-yl)-1H-benzimidazol-6-yl]pyrimidin-2-yl}amino)-3-hydroxypiperidin-1-yl]-2-hydroxypropan-1-one]
6 | 0.0005 | 0.0125 | 0.0661 | 0.377 | CC(C)(C)n1cnc2c(F)cc(-c3nc(N[C@@H]4CCN(C(=O)C5(N)CC(F)(F)C5)C[C@H]4O)ncc3Cl)cc21 [Example F30, (1-amino-3,3-difluorocyclobutyl)[(3R,4R)-4-{[4-(1-tert-butyl-4-fluoro-1H-benzimidazol-6-yl)-5-chloropyrimidin-2-yl]amino}-3-hydroxypiperidin-1-yl]methanone]
7 | 0.0018 | 0.0669 | 0.155 | 0.423 | CC(C)n1c(CN2CC(O)C2)nc2c(F)cc(-c3nc(N[C@@H]4CCOC[C@H]4O)ncc3Cl)cc21 [Example H03, 1,5-anhydro-3-[(5-chloro-4-{4-fluoro-2-[(3-hydroxyazetidin-1-yl)methyl]-1-(propan-2-yl)-1H-benzimidazol-6-yl}pyrimidin-2-yl)amino]-2,3-dideoxy-D-threo-pentitol]
8 | 0.0015 | 0.0278 | 0.161 | 0.134 | CN(C)CCN1CC[C@@H](Nc2ncc(Cl)c(-c3cc(F)c4ncn(C(C)(C)C)c4c3)n2)[C@H](O)C1 [Example F06, (3R,4R)-4-{[4-(1-tert-butyl-4-fluoro-1H-benzimidazol-6-yl)-5-chloropyrimidin-2-yl]amino}-1-[2-(dimethylamino)ethyl]piperidin-3-ol formic acid salt]

The remaining lines, values behind:

Row | SMILES | Ki (CDK4/Cyclin D1) [µM] | Ki (CDK6/Cyclin D3) [µM] | IC50 (CDK4) [µM] | IC50 (CDK6) [µM]
9 | Cc1nc2c(F)cc(-c3nc(N[C@@H]4CCN(S(C)(=O)=O)C[C@H]4O)ncc3Cl)cc2n1[C@H](C)CN [Example A38, (3R,4R)-4-[(4-{1-[(2R)-1-aminopropan-2-yl]-4-fluoro-2-methyl-1H-benzimidazol-6-yl}-5-chloropyrimidin-2-yl)amino]-1-(methanesulfonyl)piperidin-3-ol] | 0.0005 | 0.0102 | 0.456 | 0.598
10 | COCC(C)n1c(C)nc2c(F)cc(-c3nc(N[C@@H]4CCN(S(C)(=O)=O)C[C@H]4O)ncc3Cl)cc21 (single isomer, unassigned) [Example A73] | 0.0009 | 0.0161 | 0.072 | 0.188
11 | CC(C)n1c(C2COC2)nc2c(F)cc(-c3nc(N[C@@H]4CCN(S(C)(=O)=O)C[C@H]4O)ncc3Cl)cc21 [Example A30] | 0.0002 | 0.0049 | 0.0516 | 0.0635
12 | CC(C)n1c([C@@H](C)O)nc2c(F)cc(-c3nc(N[C@@H]4CCOC[C@H]4O)ncc3Cl)cc21 [Example A13] | 0.0017 | 0.0315 | 0.0722 | 0.277
13 | Cc1nc2ccc(-c3cc(N[C@@H]4CCN(S(C)(=O)=O)C[C@H]4O)ncc3Cl)nc2n1C(C)C [Example D04, (3R,4R)-4-({5-chloro-4-[2-methyl-3-(propan-2-yl)-3H-imidazo[4,5-b]pyridin-5-yl]pyridin-2-yl}amino)-1-(methanesulfonyl)piperidin-3-ol] | 0.0006 | 0.0125 | 0.0682 | 0.172
14 | C[C@@H](O)c1nc2c(F)cc(-c3nc(N[C@@H]4CCOC[C@H]4O)ncc3Cl)cc2n1C(C)(C)C [Example A60, 1,5-anhydro-3-[(4-{1-tert-butyl-4-fluoro-2-[(1R)-1-hydroxyethyl]-1H-benzimidazol-6-yl}-5-chloropyrimidin-2-yl)amino]-2,3-dideoxy-D-threo-pentitol] | 0.0016 | 0.0336 | 0.0652 | 0.19
15 | CC(C)n1c([C@H](C)N)nc2c(F)cc(-c3nc(N[C@@H]4CCOC[C@H]4O)ncc3Cl)cc21 [Example A53, 3-[(4-{2-[(1S)-1-aminoethyl]-4-fluoro-1-(propan-2-yl)-1H-benzimidazol-6-yl}-5-chloropyrimidin-2-yl)amino]-1,5-anhydro-2,3-dideoxy-D-threo-pentitol] | 0.0006 | 0.0167 | 0.0673 | 0.208
16 | Cc1nc2c(F)cc(-c3ccnc(N[C@@H]4CCN(S(C)(=O)=O)C[C@H]4O)n3)cc2n1C(C)C [Example A04] | 0.0006 | 0.0114 | 0.33 | 0.289
17 | CC(C)n1c(CO)nc2c(F)cc(-c3nc(N[C@@H]4CCN(S(C)(=O)=O)C[C@H]4O)ncc3Cl)cc21 [Example A87, (3R,4R)-4-({5-chloro-4-[4-fluoro-2-(hydroxymethyl)-1-(propan-2-yl)-1H-benzimidazol-6-yl]pyrimidin-2-yl}amino)-1-(methanesulfonyl)piperidin-3-ol] | 0.0002 | 0.0028 | 0.0401 | 0.0977
18 | CC(C)n1c(C(C)(C)O)nc2c(F)cc(-c3nc(N[C@@H]4CCOC[C@H]4O)ncc3Cl)cc21 [Example A94, 1,5-anhydro-3-({5-chloro-4-[4-fluoro-2-(2-hydroxypropan-2-yl)-1-(propan-2-yl)-1H-benzimidazol-6-yl]pyrimidin-2-yl}amino)-2,3-dideoxy-D-threo-pentitol] | 0.0006 | 0.0139 | 0.0385 | 0.145
19 | CC1(C)COCc2nc3c(F)cc(-c4nc(N[C@@H]5CCOC[C@H]5O)ncc4F)cc3n21 [Example A19] | 0.0009 | 0.0146 | 0.0691 | 0.318
20 | C[C@H](O)c1nc2c(F)cc(-c3nc(N[C@@H]4CCOC[C@H]4O)ncc3Cl)cc2n1C(C)(C)C [Example A61, 1,5-anhydro-3-[(4-{1-tert-butyl-4-fluoro-2-[(1S)-1-hydroxyethyl]-1H-benzimidazol-6-yl}-5-chloropyrimidin-2-yl)amino]-2,3-dideoxy-D-threo-pentitol] | 0.0002 | 0.0026 | 0.0114 | 0.0335
21 | C[C@@H](O)c1nc2c(F)cc(-c3nc(N[C@@H]4CCN(S(C)(=O)=O)C[C@H]4O)ncc3Cl)cc2n1C(C)(C)C [Example A62, (3R,4R)-4-[(4-{1-tert-butyl-4-fluoro-2-[(1R)-1-hydroxyethyl]-1H-benzimidazol-6-yl}-5-chloropyrimidin-2-yl)amino]-1-(methanesulfonyl)piperidin-3-ol] | 0.0005 | 0.008 | 0.0275 | 0.0666
22 | Cc1nc2cc(F)c(-c3nc(N[C@@H]4CCN(S(C)(=O)=O)C[C@H]4O)ncc3Cl)cc2n1C(C)C [Example A06] | 0.0014 | 0.0175 | 0.0874 | 0.192
23 | CC(C)n1c(CC2(N)CCCC2)nc2c(F)cc(-c3nc(N[C@@H]4CCOC[C@H]4O)ncc3Cl)cc21 [Example A59, 3-[(4-{2-[(1-aminocyclopentyl)methyl]-4-fluoro-1-(propan-2-yl)-1H-benzimidazol-6-yl}-5-chloropyrimidin-2-yl)amino]-1,5-anhydro-2,3-dideoxy-D-threo-pentitol] | 0.0006 | 0.0567 | 0.0477 | 0.521
24 | Cn1nc2c(F)cc(-c3nc(N[C@@H]4CCOC[C@H]4O)ncc3Cl)cc2c1C(C)(C)N [Example A49, 3-({4-[3-(2-aminopropan-2-yl)-7-fluoro-2-methyl-2H-indazol-5-yl]-5-chloropyrimidin-2-yl}amino)-1,5-anhydro-2,3-dideoxy-D-threo-pentitol] | 0.0007 | 0.0143 | 0.076 | 0.219
25 | COCC(C)n1c(C)nc2c(F)cc(-c3nc(N[C@@H]4CCN(S(C)(=O)=O)C[C@H]4O)ncc3Cl)cc21 (single isomer, unassigned) [Example A74] | 0.0002 | 0.0062 | 0.0265 | 0.0897
